# Earlier results in US20100041745A1, “Aigialomycin D and Derivatives Thereof and Their Use in Treating Cancer or Malaria or a Microbial Infection” (priority 2006, published 2010).
# Legend:
# [1] = tested on: Vero cells
# [2] = tested on: P. falciparum
# [3] = tested on: KB cells
compound,measurement,setting,value
"C[C@H]1C/C=C/[C@@H](O)[C@@H](O)CC/C=C/c2cc(O)cc(O)c2C(=O)O1 [aigialomycin D, Aigialomycin D]",IC50 against Vero cells (antitumour activity),[1],1.8 µg/mL
same,IC50 against P. falciparum (anti-malarial activity),[2],6.6 µg/mL
same,IC50 against KB cells (antitumour activity),[3],3.0 µg/mL
